Columns and labels:
S1P receptor = conditions: with the exception of S1P2; by stable internalization; cited from earlier work
tumor transplant model = conditions: in vivo; cited from earlier work
MDA-MB-231 cells [1] = experiment: Tamoxifen toxicity, cell viability by phase contrast microscopy; format: cell-based, human
Description: The experiment can be performed first without a S1P antagonist. MDA-MB-231 cells are cultured under standard conditions in […] supplemented with 10% fetal bovine serum and glutamate. Cells are grown in the absence of serum for 24 hours prior to experimental manipulation. Tamoxifen (Tam) and S1P are added to the media at the indicated concentrations for the indicated times at the appropriate concentrations (e.g., 3 μM Tam, 10 μM Tam, and 20 μM Tam) for appropriate times (e.g., 6 hrs. and 24 hrs.). Cell viability is observed by direct illumination with an inverted phase contrast microscope.
The tamoxifen toxicity experiment can be performed using an antagonist of S1P that binds to S1P3. For example, the antiserum described in Example 1 can be employed. MDA-MB-231 cells are cultured under standard conditions in Dulbecco's Minimal Essential Media supplemented with 10% fetal bovine serum and glutamate. Serum concentration is reduced to 1% for 24 hours prior to experimental manipulation. Tamoxifen and S1P are added to the media at the appropriate concentrations (e.g., 0 μM Tam, 10 μM Tam, and 20 μM Tam) for appropriate times (e.g., 6 hrs. and 24 hrs.). Cell viability is observed by direct illumination with an inverted phase contrast microscope.

MCF-7 cells = experiment: Cell death by annexin V assay; format: cell-based, human
Description: Quantification of cell death can be performed with an annexin V assay. Serum-starved cells can be treated overnight with […] tamoxifen in the presence or absence of 500 nM S1P, then collected by trypsinization, and labeled with Alexafluor 488-conjugated annexin V (Invitrogen Corp, Carlsbad, Calif.) per manufacturer's protocol. Cells can be counted on a FACSAria cell sorting system and analyzed with FACSDiva software (BD Biosciences, San Jose, Calif.). […] This effect is attenuated by co-administration of 500 nM S1P.

[2] = test system: MDA-MB-231 breast cancer cells; experiment: S1P-induced cytoskeletal rearrangement / cell rounding; format: cell-based, human
Description: MDA-MB-231 breast cancer cells are cultured on collagen-coated coverslips in the presence of 10% FBS using standard techniques. Because S1P is present at high concentrations in serum, BCCs are “serum-starved” in Dulbecco's modified Eagle medium (DMEM) for 12 hours prior to experimental manipulation. S1P is solubilized with bovine serum albumin (BSA) carrier and administered at a final concentration of 1 nM to 1 μM. Coverslips are collected at representative time points such as 10 minutes, 1 hr., 2 hrs., 4 hrs., and 6 hrs., fixed with 4% paraformaldehyde, and stained with rhodamine-conjugated phalloidin to label cytoskeletal actin.
The cell rounding experiment can be performed using an antagonist of S1P that binds to S1P3. […] Serum-starved MDA-MB-231 cells are incubated with preimmune serum or S1P3-reactive antiserum for 15 minutes prior to a 30-minute exposure to 10 nM S1P, then evaluated for response both in % cells responding and average cell area.
MDA-MB-231 cells are grown under standard culture conditions and serum starved for 24 hours prior to experimental manipulation. […] 30 minutes after S1P administration, cells are fixed with 4% paraformaldehyde, stained with rhodamine-conjugated phalloidin, and visualized with fluorescence microscopy. Rounded cells are counted by an experimenter blinded to the identity of the sample. Cell area is determined by quantification with imageJ software.

MDA-MB-231 cells [3] = experiment: Cell motility, modified Boyden's chamber assay; format: cell-based, human; conditions: 1 μM S1P; two hour time point
Description: Cell motility is determined using a modified Boyden's chamber assay. MDA-MB-231 cells are introduced into the upper wells of collagen-coated chambers in serum-free DMEM and incubated for 30 minutes before the addition of either 1 μM S1P in BSA or BSA alone. At the indicated times, wells are isolated and fixed with 4% paraformaldehyde before non-migrated cells in the upper well are removed with a cotton swab. Membranes are then stained with DAPI to visualize individual migrated cells on the bottom of the membranes. Results shown are the averages of three independent experiments. Determination of the effect of S1P3 blocking antibodies on the migration of cancer cells can be performed as follows. The effect of S1P3 blocking antibodies is determined using a modified Boyden chamber assay as described above. In this case, an appropriate cell line (such as […]) is seeded into the upper chamber of the transwell and pre-treated with a blocking antibody or control antibody. […] Cells are then fixed and counted as described above. The anti-migratory effect of the blocking antibody is determined by comparing the number of migrated cells in the presence of the antibody to the number of migrated cells in the presence of an appropriate control antibody under the same stimulatory conditions.

CCCCCCCCc1ccc(CCC(N)(CO)CO)cc1 [FTY720]
inhibition of S1P receptors (S1P receptor): effectively inhibit four of the five known receptors | effect on angiogenesis and tumor growth (tumor transplant model): inhibit angiogenesis and subsequent growth

CCCCCCCCCCCCC/C=C/[C@@H](O)[C@@H](N)COP(=O)(O)O [S1P, Sphingosine 1-phosphate]
cell viability under tamoxifen with S1P (MDA-MB-231 cells [1]; serum-free, 6 hours, media supplemented with 1 μM S1P): many viable cells remain | cell viability under tamoxifen with S1P (MDA-MB-231 cells [1]; serum-free, 24 hour, addition of S1P): markedly improves survival | effect on tamoxifen-induced annexin V binding (MCF-7 cells; co-administration of 500 nM S1P): attenuated | cell shape change ([2]; 1 nM S1P): minor cell shape changes | cell shape change ([2]; 10 nM S1P): dramatic cell rounding | increase in migrated cells compared to vehicle control (MDA-MB-231 cells [3]): nearly two-fold increase

CC/C(=C(\c1ccccc1)c1ccc(OCCN(C)C)cc1)c1ccccc1 [Tamoxifen]
cell viability (MDA-MB-231 cells [1]; 1% FBS, 6 hours, 10 μM Tam): appear normal | cell viability (MDA-MB-231 cells [1]; 1% FBS, 6 hours, 20 μM Tam): begin to show evidence of cell death | cell viability (MDA-MB-231 cells [1]; 24 hours, 10 μM Tam, control conditions): most cells remain healthy | cell viability (MDA-MB-231 cells [1]; serum-free, 6 hours, 10 μM tamoxifen): only a few viable cells remain | cell viability (MDA-MB-231 cells [1]; serum-free, 6 hours, 20 μM tamoxifen): all cells are dead/dying | cell viability (MDA-MB-231 cells [1]; serum-free, 24 hour, 3 μM tamoxifen): most control cells are lost | cell viability (MDA-MB-231 cells [1]; serum-free, 24 hour, 10 μM tamoxifen): cell death is complete | annexin V binding (apoptotic cell death) (MCF-7 cells; overnight treatment of MCF-7 cells): increase in annexin V binding

— patent publication US8212010B2, “Sphingosine 1-phosphate antagonism” (Expression Drug Designs, LLC, priority 2008, dated 2012)
